Laboratory results reported in patent US10550089B2, “Inhibitors of protease-activated receptor-2” (Heptares Therapeutics Limited, priority 2016, dated 2020).

Columns and labels:
PAR2 [1] = molecular target: T1, PAR2 (Homo sapiens (Human), UniProt P55085); assay: IP-One HTRF assay for PAR2 antagonist activity (IP1 production); assay type: cell-based
Description: Protocol for Testing Compounds for PAR2 Antagonist Activity Using an IP-One HTRF Assay
Inositol monophosphate (IP1) production were measured in 1321N1 cells stably expressing human PAR2 using an IP-One HTRF assay kit (Cisbio). […] After 60 min at 37° C. cells were lysed and IP1 concentrations were detected according to the manufacturers protocol (Cisbio). Data were normalized to IP1 concentrations using a IP1 standard curve according to the manufacturers protocol (Cisbio).

PAR2 [2] = molecular target: T1, PAR2; assay: Trypsin activated FLPR Ca2+ mobilization assay for PAR2 antagonist activity; assay type: cell-based
Description: Trypin Activated FLPR Assay:
Protocol for Testing Compounds for PAR2 Antagonist Activity Using a Ca2+ Mobilization Assay
Calcium mobilization was measured using 1321N1 cells stably expressing human PAR2. Cells were seeded in 384-well plates at 4,000 cells per well in 20 μl DMEM with Glutamax supplemented with 10% FBS and incubated for 18-24 h at 37° C., 5% CO2 and 95% humidity. […] The addition was done using a FLIPR^TETRA (384-well head, Molecular Devices) and the response was read simultaneously to detect any agonist activity.

[3] = 1321N1 cells stably expressing human PAR2, agonist SLIGRL-NH2, read-out: hPAR2 IPpone IC50
[4] = 1321N1 cells stably expressing human PAR2, agonist Trypsin, Vorapaxar present to block PAR1, read-out: hPAR2 FLPR (Trypsin) IC50
[5] = hPAR2 IPpone IC50 (μM), 1321N1 cells stably expressing human PAR2, agonist SLIGRL-NH2
[6] = hPAR2 FLPR (Trypsin) IC50 (μM), 1321N1 cells stably expressing human PAR2, agonist Trypsin, Vorapaxar present to block PAR1

T1 sequence (P55085 26-397): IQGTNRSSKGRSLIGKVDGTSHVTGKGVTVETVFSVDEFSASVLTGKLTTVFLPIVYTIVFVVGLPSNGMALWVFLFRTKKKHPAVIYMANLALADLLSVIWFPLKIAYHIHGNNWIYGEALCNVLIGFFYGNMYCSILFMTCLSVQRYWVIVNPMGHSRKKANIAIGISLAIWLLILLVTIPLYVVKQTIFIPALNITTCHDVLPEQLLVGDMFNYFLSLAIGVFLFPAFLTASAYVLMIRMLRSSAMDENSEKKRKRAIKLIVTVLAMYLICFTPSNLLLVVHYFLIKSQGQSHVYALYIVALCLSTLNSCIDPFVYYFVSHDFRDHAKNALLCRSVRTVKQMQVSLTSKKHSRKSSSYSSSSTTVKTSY

SMILES | IC50 (PAR2 [1]; [3]) [µM] | IC50 (PAR2 [2]; [4]) [µM] | other results
CCCc1c(C(O)c2ncc[nH]2)ccc(F)c1F (single isomer, unassigned) [Example 11, (3,4-Difluoro-2-propylphenyl)(1H-imidazol-2-yl)methanol] | > 41 | > 77 | –
CCCc1c(C(O)c2ncc[nH]2)ccc(F)c1F (single isomer, unassigned) [Example 12, (3,4-Difluoro-2-propylphenyl)(1H-imidazol-2-yl)methanol] | 4 | 4.9 | –
OC(c1ncc[nH]1)c1ccc(F)cc1N1CCCC1 (single isomer, unassigned) [Example 15, (4-Fluoro-2-(pyrrolidin-1-yl)phenyl)(1H-imidazol-2-yl)methanol] | – | – | IC50 (PAR2 [1]; hPAR2 IPpone IC50 (μM)): > 100 µM; IC50 (PAR2 [2]; hPAR2 FLPR (Trypsin) IC50 (μM)): > 41 µM
OC(c1ncc[nH]1)c1ccc(F)cc1N1CC=CC1 (single isomer, unassigned) [Example 18, (2-(2,5-dihydro-1H-pyrrol-1-yl)-4-fluorophenyl)(1H-imidazol-2-yl)methanol] | 0.9 | 4.28 | –
OC(c1ncc[nH]1)c1ccc(F)cc1N1CC=CC1 (single isomer, unassigned) [Example 19, (2-(2,5-dihydro-1H-pyrrol-1-yl)-4-fluorophenyl) (1H-imidazol-2-yl)methanol] | 93 | > 100 | –
CCc1coc2c(F)ccc([C@@H](O)c3ncc[nH]3)c12 (single isomer, unassigned) [Example 41] | – | – | IC50 (PAR2 [1]; [5]): 26 µM; IC50 (PAR2 [2]; [6]): 2.19 µM
OC(c1ncc[nH]1)c1ccc(F)c2occ(C3CC3)c12 (single isomer, unassigned) [Example 44, (3-Cyclopropyl-7-fluorobenzofuran-4-yl)(1H-imidazol-2-yl)methanol] | 6.54 | > 41 | –
OC(c1ncc[nH]1)c1ccc(F)c2occ(C3CC3)c12 (single isomer, unassigned) [Example 45, (3-Cyclopropyl-7-fluorobenzofuran-4-yl)(1H-imidazol-2-yl)methanol] | 0.63 | 6.07 | –
Cn1ccc2c(F)ccc(C(O)c3ncc[nH]3)c21 (single isomer, unassigned) [Example 56, (4-Fluoro-1-methyl-1H-indol-7-yl)(1H-imidazol-2-yl)methanol] | > 100 | > 41.6 | –
CCCc1cc(F)ccc1C(O)c1ncc[nH]1 (stereo not drawn) [Example 1, (4-Fluoro-2-propylphenyl)(1H-imidazol-2-yl)methanol] | – | – | IC50 (PAR2 [1]; hPAR2 IPpone IC50 (μM)): 2.93 µM
CCCc1cc(F)ccc1[C@@H](O)c1ncc[nH]1 [Example 2, (R)-(4-fluoro-2-propylphenyl)(1H-imidazol-2-yl)methanol] | > 100 | > 41 | –
OC(c1ncc[nH]1)c1ccccc1C1=CCCC1 (stereo not drawn) [Example 4, (2-Cyclopentenylphenyl)(1H-imidazol-2-yl)methanol] | 6.27 | 16.6 | –
OC(c1ncc[nH]1)c1ccc(F)cc1C1=CCCC1 (stereo not drawn) [Example 5, (2-Cyclopentenyl-4-fluorophenyl)(1H-imidazol-2-yl)methanol] | 5.18 | 13.7 | –
OC(c1ncc[nH]1)c1ccc(F)cc1C1CCCC1 (stereo not drawn) [Example 6, (2-Cyclopentyl-4-fluorophenyl)(1H-imidazol-2-yl)methanol] | 5 | 9.57 | –
OC(c1ncc[nH]1)c1ccc(F)cc1C1CCC1 (stereo not drawn) [Example 7, (2-Cyclobutyl-4-fluorophenyl)(1H-imidazol-2-yl)methanol] | 11.5 | 7.85 | –
C/C=C/c1cc(F)ccc1C(O)c1ncc[nH]1 (stereo not drawn) [Example 8, (E)-(4-Fluoro-2-(prop-1-enyl)phenyl)(1H-imidazol-2-yl)methanol] | 5.64 | 5.1 | –
C/C=C\c1cc(F)ccc1C(O)c1ncc[nH]1 (stereo not drawn) [Example 9, (Z)-(4-Fluoro-2-(prop-1-enyl)phenyl)(1H-imidazol-2-yl)methanol] | 9.66 | 6.26 | –
CCCc1c(C(O)c2ncc[nH]2)ccc(F)c1F (stereo not drawn) [Example 10, (3,4-Difluoro-2-propylphenyl)(1H-imidazol-2-yl)methanol] | 1.66 | 5.9 | –
CCCc1c(Cl)cccc1C(O)c1ncc[nH]1 (stereo not drawn) [Example 13, (3-Chloro-2-propylphenyl)(1H-imidazol-2-yl)methanol] | – | – | IC50 (PAR2 [1]; [5]): 5.45 µM; IC50 (PAR2 [2]; [6]): 12.4 µM
OC(c1ncc[nH]1)c1ccc(F)cc1N1CCCC1 (stereo not drawn) [Example 14, (4-Fluoro-2-(pyrrolidin-1-yl)phenyl)(1H-imidazol-2-yl)methanol] | – | – | IC50 (PAR2 [1]; hPAR2 IPpone IC50 (μM)): 1.52 µM; IC50 (PAR2 [2]; hPAR2 FLPR (Trypsin) IC50 (μM)): 16.9 µM
OC(c1ncc[nH]1)c1ccc(F)cc1N1CC=CC1 (stereo not drawn) [Example 17, (2-(2,5-dihydro-1H-pyrrol-1-yl)-4-fluorophenyl)(1H-imidazol-2-yl)methanol] | 1.05 | 8.75 | –

SMILES | IC50 (PAR2 [1]; [3]) [µM] | IC50 (PAR2 [2]; [4]) [µM] | other results
OC(c1ncc[nH]1)c1ccc(F)cc1N1CCC1 (stereo not drawn) [Example 20, (2-(Azetidin-1-yl)-4-fluorophenyl)(1H-imidazol-2-yl)methanol] | 4.5 | 18.6 | –
OC(c1ncc[nH]1)c1cccc(Cl)c1-n1cccn1 (stereo not drawn) [Example 21, (3-Chloro-2-(1H-pyrazol-1-yl)phenyl) (1H-imidazol-2-yl)methanol] | 6.4 | 40.3 | –
OC(c1ncc[nH]1)c1ccc(F)c(F)c1-n1cccn1 (stereo not drawn) [Example 22, (3,4-Difluoro-2-(1H-pyrazol-1-yl)phenyl)(1H-imidazol-2-yl)methanol] | 4.6 | 20 | –
OC(c1ncc[nH]1)c1ccc(F)cc1-n1cccn1 (stereo not drawn) [Example 23, (4-Fluoro-2-(1H-pyrazol-1-yl)phenyl)(1H-imidazol-2-yl)methanol] | 7.21 | 25.4 | –
CC1(F)CN(c2cc(F)ccc2C(O)c2ncc[nH]2)C1 (stereo not drawn) [Example 24, (4-Fluoro-2-(3-fluoro-3-methylazetidin-1-yl)phenyl)(1H-imidazol-2-yl)methanol] | 6.73 | 16.3 | –
CC1CN(c2cc(F)ccc2C(O)c2ncc[nH]2)C1 (stereo not drawn) [Example 25, (4-Fluoro-2-(3-methylazetidin-1-yl)phenyl)(1H-imidazol-2-yl)methanol] | 6.88 | 22 | –
OC(c1ncc[nH]1)c1ccc(F)cc1N1CC[C@H](F)C1 (stereo partly drawn) [Example 26, (4-Fluoro-2-((S)-3-fluoropyrrolidin-1-yl)phenyl)(1H-imidazol-2-yl)methanol] | 3.87 | – | –
OC(c1ncc[nH]1)c1ccc(F)cc1N1CC[C@@H](F)C1 (stereo partly drawn) [Example 27, (4-Fluoro-2-((R)-3-fluoropyrrolidin-1-yl)phenyl)(1H-imidazol-2-yl)methanol] | 6.96 | > 41.6 | –
OC(c1ncc[nH]1)c1ccc(F)cc1N1CCC(F)(F)C1 (stereo not drawn) [Example 28, (2-(3,3-Difluoropyrrolidin-1-yl)-4-fluorophenyl)(1H-imidazol-2-yl)methanol] | 4.91 | 30.3 | –
C[C@@H]1CCN(c2cc(F)ccc2C(O)c2ncc[nH]2)C1 (stereo partly drawn) [Example 29, (4-Fluoro-2-((R)-3-methylpyrrolidin-1-yl)phenyl)(1H-imidazol-2-yl)methanol] | 13.1 | > 41.6 | –
OC(c1ncc[nH]1)c1ccc(F)cc1N1CC2CC2C1 (stereo not drawn) [Example 30, (2-(3-Azabicyclo[3.1.0]hexan-3-yl)-4-fluorophenyl)(1H-imidazol-2-yl)methanol] | – | – | IC50 (PAR2 [1]; [5]): 4.67 µM; IC50 (PAR2 [2]; [6]): 11.6 µM
OC(c1ncc[nH]1)c1ccc(F)cc1C12CCCC1C2 (stereo not drawn) [Example 31, (2-(Bicyclo[3.1.0]hexan-1-yl)-4-fluorophenyl)(1H-imidazol-2-yl)methanol] | 4.32 | > 41 | –
OC(c1ncc[nH]1)c1ccc(F)cc1-c1cocn1 (stereo not drawn) [Example 32, (4-Fluoro-2-(oxazol-4-yl)phenyl)(1H-imidazol-2-yl)methanol] | 14.3 | 30.6 | –
OC(c1ncc[nH]1)c1ccc(F)cc1-c1cscn1 (stereo not drawn) [Example 33, (4-Fluoro-2-(thiazol-4-yl)phenyl)(1H-imidazol-2-yl)methanol] | – | – | IC50 (PAR2 [1]; hPAR2 IPpone IC50 (μM)): 3.6 µM; IC50 (PAR2 [2]; hPAR2 FLPR (Trypsin) IC50 (μM)): 16.8 µM
Cc1ccc2c(F)ccc(C(O)c3ncc[nH]3)n12 (stereo not drawn) [Example 37, (8-Fluoro-3-methylindolizin-5-yl)(1H-imidazol-2-yl)methanol] | 0.97 | 3.27 | –
OC(c1ncc[nH]1)c1ccc(F)c2ccc(C3CC3)n12 (stereo not drawn) [Example 39, (3-Cyclopropyl-8-fluoroindolizin-5-yl)(1H-imidazol-2-yl)methanol] | – | – | IC50 (PAR2 [1]; [5]): 13.2 µM
Cn1ccc2c(F)ccc(C(O)c3ncc[nH]3)c21 (stereo not drawn) [Example 54, (4-Fluoro-1-methyl-1H-indol-7-yl)(1H-imidazol-2-yl)methanol] | – | 6.15 | –
OC(c1ncc[nH]1)c1cccc2cc3n(c12)CCC3 (stereo not drawn) [Example 58, (2,3-Dihydro-1H-pyrrolo[1,2-a]indol-5-yl)(1H-imidazol-2-yl)methanol] | – | > 41.6 | –
Cn1ncc2c(F)ccc(C(O)c3ncc[nH]3)c21 (stereo not drawn) [Example 62, (4-Fluoro-1-methyl-1H-indazol-7-yl)(1H-imidazol-2-yl)methanol] | 3.38 | – | –
CCc1coc2c(F)ccc(C(O)c3ncn[nH]3)c12 (stereo not drawn) [Example 63, (3-Ethyl-7-fluorobenzofuran-4-yl)(1H-1,2,4-triazol-5-yl)methanol] | – | 15.6 | –
